In US11925650B2, “Antibacterial chemical compound, its manufacturing method and its use thereof” (National Taiwan University, priority 2022, dated 2024):
Where two headings read alike, the source gives them in different places.

What was measured:
[1] = system: intracellular Salmonella in RAW264.7 cells; test: Intracellular Salmonella viability with autophagy inhibitor 3-MA (HCA); format: cell-based, S. typhimurium
Experimental: FIG. 7. Infected RAW264.7 cells treated with 10 mM of 3-MA for 1 h followed by 0.5 μM of SW14 or mock (DMSO) treatment for 24 hours.
Autophagy was originally characterized as a cellular response to stress, but has been considered to be a defense mechanism to combat host cell infection by intracellular Salmonella. Therefore, to evaluated the role of autophagy in SW14's anti-intracellular Salmonella activity, infected cells are treated with 3-MA, an autophagy inhibitor to block cellular autophagy then followed by treatment with SW14 for 24 h. […] Compared to mock-treated cells, the viability of intracellular Salmonella in cells treated with SW14 or the combination of 3-MA and SW14 were 45% and 36.8%, respectively.

[2] = system: Salmonella Typhimurium ATCC 14028; test: MIC of antibiotics, strain ATCC 14028; format: cell-based; details: for MIC: Salmonella enterica
[3] = system: Salmonella Typhimurium NL08.10; test: MIC of antibiotics, multidrug-resistant isolate NL08.10; format: cell-based; details: Table 5; for MIC: Salmonella enterica, TYPHIMURIUM
[4] = system: Salmonella Typhimurium 0911R; test: MIC of antibiotics, multidrug-resistant isolate 0911R; format: cell-based; details: Table 5; for MIC: Salmonella enterica, TYPHIMURIUM
[5] = system: Salmonella Typhimurium SA10; test: MIC of antibiotics, ciprofloxacin-resistant strain SA10; format: cell-based; details: Table 6; for MIC: Salmonella enterica, TYPHIMURIUM
[6] = system: Salmonella Typhimurium SB10; test: MIC of antibiotics, ciprofloxacin-resistant strain SB10; format: cell-based; details: Table 6; for MIC: Salmonella enterica, TYPHIMURIUM
[7] = system: intracellular Salmonella in RAW264.7 cells; test: Intracellular Salmonella with cefixime or ciprofloxacin alone or combined with SW14 (HCA); format: cell-based; details: 24 hours
Experimental: FIG. 4. Salmonella-infected RAW264.7 cells treated with (A) 0.25, 0.5, 1, 2, and 4 mg/L of cefixime (CFM) and (B) 0.03, 0.06, 0.125, 0.25, and 0.5 mg/L of ciprofloxacin (CIP) alone or in combination with 0.5 μM SW14. After 24 hours, the relative numbers of intracellular bacteria were determined using HCA and the results are expressed as relative fluorescence units (RFU).

[8] = system: ROS levels in infected macrophages; test: ROS production in Salmonella-infected RAW264.7 cells (H2DCFDA); format: cell-based; details: 1 hour; SW14 at concentrations up to 8 μM
Experimental: FIG. 10. […] The viabilities of intracellular Salmonella in RAW264.7 cells treated with SW14 with/without the ROS scavengers N-acetyl-cysteine (NAC; 10 mM) or glutathione (GSH; 10 mM) are assessed using HCA. […] Salmonella-infected RAW264.7 cells are loaded with 25 μM H2DCFDA for 45 min followed by treatment with SW14 or PMA at various concentrations. […] S. Typhimurium ATCC 14028 is treated with H2O2 alone or in combination with SW14 (0.5 μM) in (C) LB or (D) LPM for 1 hour followed by evaluation by the CFU assay to determine bacterial viability.

S. Typhimurium 14028 = test: Anti-intracellular Salmonella activity in infected RAW264.7 cells (HCA); format: cell-based, Salmonella Typhimurium
RAW264.7 = test: Cytotoxicity in RAW264.7 cells (HCA, MTT cell viability assay); format: cell-based; details: Mus musculus, RAW264.7, read-out: IC50 (μM) RAW264.7
Experimental: The cell viability was evaluated using HCA and an MTT cell viability assay, and the data are expressed as a percentage relative to the untreated control and are presented as the mean±SD (n=3 per group).

S. typhimurium = test: Bacterial growth in medium (OD600); format: cell-based; details: LB medium and macrophage culture medium, concentrations up to 64 μM, 24 hours
Experimental: FIG. 6. The growth of S. typhimurium in LB medium, cell culture medium (CCM), or LPM medium containing 0, 0.5, and 64 μM of SW14 monitored by measuring the OD600 of each bacterial culture at designated times for a total of 24 h.

[9] = system: S. Typhimurium ATCC 14028; test: Bacterial susceptibility to H2O2 (CFU assay); format: cell-based, Salmonella Typhimurium; details: 1 hour
Experimental: (§1) FIG. 10. SW14 sensitizing outer membrane-compromised S. typhimurium to oxidative stress. (A) ROS scavengers reversed the suppressive effects of SW14 on intracellular S. typhimurium. The viabilities of intracellular Salmonella in RAW264.7 cells treated with SW14 with/without the ROS scavengers N-acetyl-cysteine (NAC; 10 mM) or glutathione (GSH; 10 mM) are assessed using HCA. […] Salmonella-infected RAW264.7 cells are loaded with 25 μM H2DCFDA for 45 min followed by treatment with SW14 or PMA at various concentrations. […] S. Typhimurium ATCC 14028 is treated with H2O2 alone or in combination with SW14 (0.5 μM) in (C) LB or (D) LPM for 1 hour followed by evaluation by the CFU assay to determine bacterial viability.
Next, the effects of SW14 on bacterial resistance to ROS are investigated.

[10] = system: multidrug-resistant S. typhimurium NL08.10 and 0911R; details: SW14 0.3-10 μM with gentamicin, 24 h
Experimental: (§2) FIG. 5. RAW264.7 cells infected with (A) multidrug-resistant strains of S. Typhimurium ATCC 14028, NL08., and 100911R or (B) ciprofloxacin-resistant strains of S. typhimurium ATCC 14028, SA10, and SB10 followed by treatment with 0, 0.3, 1, 3, and 10 μM of SW14 combined with […] gentamicin for 24 h. The relative numbers of intracellular bacteria were determined using HCA and the results are expressed as relative fluorescence units (RFU).

[11] = system: ciprofloxacin-resistant strain SA10 and SB10; details: SA10 and SB10, SW14 0.3-10 μM with gentamicin, 24 h
Experimental: as §2
Then extended the investigation to S. typhimurium isolates with resistance to ciprofloxacin.

[12] = system: S. Typhimurium within macrophages; test: Intracellular Salmonella viability with ROS scavengers (HCA); format: cell-based, Salmonella Typhimurium; details: NAC 10 mM or GSH 10 mM
Experimental: as §1
Oxidative stress is another innate defense system in host cells that controls intracellular Salmonella infection. In FIG. 10(A), the suppressive effects of SW14 against S. Typhimurium within macrophages are reversed in the presence of two ROS scavengers, N-acetyl cysteine (NAC) and glutathione (GSH).

[13] = system: intracellular Salmonella in Atg7 knockdown RAW264.7 cells; test: Intracellular bacterial survival in RAW264.7 cells with Atg7 knockdown (HCA); format: cell-based, S. typhimurium; details: shRNA Atg7 knockdown RAW264.7 cells, SW14 0.3 and 1 μM, 24 hours
Excerpt: FIG. 8. RAW264.7 cells transfected with a plasmid to express shRNA targeting Atg7 (shATG7). The levels of the Atg7 protein in the stable transfectants as determined by immunoblotting. Bands for Atg7 were quantified by densitometry and normalized to those of β-actin. Percentages represent the relative expression levels of Atg7 in the shATG7 transfectants compared to the vector transfectants.
FIG. 9. Intracellular bacterial survival in SW14-treated RAW264.7 cells with shRNA-mediated knockdown of Atg7 expression. RAW264.7 cells were transfected with the empty vector (Vec) and infected with S. typhimurium followed by treatment with 0, 0.3, and 1 μM of SW14 and […] gentamicin for 24 hours. The numbers of surviving intracellular bacteria are determined by HCA and the results are expressed as a percentage of the control group. Data shown are the means; error bars represent the SD (n=3). ns: non-significant, P>0.05; *P<0.05 for the differences between the drug-treated groups and their respective control groups.

[14] = system: intracellular Salmonella in RAW264.7 cells; test: Intracellular bacteria survival, colony-forming unit assay; details: sub-micromolar concentrations, gentamicin 20 mg/L, 24 h
Experimental: The intracellular bacteria survival was assessed using HCA and a CFU assay, and the data are expressed as a percentage relative to the untreated control and are presented as the mean±SD (n=3 per group).

[15] = CAMH medium, read-out: MIC S. Typhimurium ATCC 14028, CAMH
[16] = LB medium, read-out: MIC S. Typhimurium ATCC 14028, LB
[17] = Table 5, read-out: MIC ATCC 14028
[18] = acidic LPM medium, read-out: MIC S. Typhimurium ATCC 14028, LPM
[19] = Table 6, read-out: MIC ATCC 14028

Cn1cnc(=N)c2[nH]cnc21 [3-MA, reference compound]
relative number of intracellular bacteria in 3-MA-treated cells ([1]; 10 mM 3-MA): increased significantly

CC1(C)S[C@@H]2[C@H](NC(=O)[C@H](N)c3ccccc3)C(=O)N2[C@H]1C(=O)O [Ampicillin]
MIC [2, 15]: 4 µg/mL
MIC [2, 16]: 4 µg/mL
MIC [2, 17]: 16 µg/mL
MIC [2, 18]: 1 µg/mL
MIC [3]: > 64 µg/mL
MIC [4]: > 64 µg/mL

O=C(N[C@H](CO)[C@H](O)c1ccc([N+](=O)[O-])cc1)C(Cl)Cl [Chloramphenicol]
MIC [2, 17]: 16 µg/mL
MIC [3]: 32 µg/mL
MIC [4]: 32 µg/mL

O=C(O)c1cn(C2CC2)c2cc(N3CCNCC3)c(F)cc2c1=O [Ciprofloxacin, ciprofloxacin]
MIC [2, 19]: < 0.125 µg/mL
MIC [5]: 4 µg/mL
MIC [6]: 4 µg/mL
survival of intracellular Salmonella in macrophages, antibiotic treatment ([7]; alone or combined with 0.5 μM SW14): inhibited the survival of intracellular Salmonella in macrophages in a dose-dependent manner

CC1COc2c(N3CCN(C)CC3)c(F)cc3c(=O)c(C(=O)O)cn1c23 (stereo not shown) [Ofloxacin]
MIC [2, 19]: < 0.125 µg/mL
MIC [5]: 8 µg/mL
MIC [6]: 8 µg/mL

CCCCCCCCCCCCCC(=O)O[C@@H]1[C@@H](C)[C@@]2(O)[C@@H](C=C(CO)C[C@]3(O)C(=O)C(C)=C[C@@H]23)[C@@H]2C(C)(C)[C@]12OC(C)=O [PMA, reference compound]
ROS levels (H2DCFDA signal) in infected macrophages [8]: significantly elevated ROS levels

CO[C@H]1/C=C/O[C@@]2(C)Oc3c(C)c(O)c4c(O)c(c(/C=N/N5CCN(C)CC5)c(O)c4c3C2=O)NC(=O)/C(C)=C\C=C\[C@H](C)[C@H](O)[C@@H](C)[C@@H](O)[C@@H](C)[C@H](OC(C)=O)[C@@H]1C [Rifampin]
MIC [2, 15]: 16 µg/mL
MIC [2, 16]: 16 µg/mL
MIC [2, 18]: 4 µg/mL

Clc1ccc2c(c1)C(NCCN1CCNCC1)=Nc1ccccc1O2 [SW14, 2-chloro-N-(2-(piperazin-1-yl)ethyl)dibenzo[b,f][1,4]oxazepin-11-amine]
Selectivity ratio (IC50/EC50) (S. Typhimurium 14028; IC50 RAW264.7 / EC50 S. Typhimurium 14028): 80.6
EC50 (S. Typhimurium 14028; Salmonella enterica, TYPHIMURIUM, RAW264.7, read-out: EC50 (μM) S. Typhimurium 14028, intracellular Salmonella in infected RAW264.7 cells): 0.5 µM
EC50 (S. Typhimurium 14028; read-out: EC50 (μM) S. Typhimurium 14028, intracellular Salmonella in infected RAW264.7 cells): 0.4 µM
IC50 (RAW264.7): 28.7 µM
viability of intracellular Salmonella compared to mock-treated cells, combination of 3-MA and SW14 ([1]; 10 mM 3-MA 1 h, then 0.5 μM SW14 24 hours): 36.8%
viability at 0.5 µM ([1]; Salmonella, RAW264.7, 24 h, read-out: viability of intracellular Salmonella compared to mock-treated cells): 45%
inhibitory effect on growth of bacteria in medium (S. typhimurium): did not show significant inhibitory effects
ROS levels (H2DCFDA signal) in infected macrophages [8]: did not observe any significant change
susceptibility of S. typhimurium to H2O2 after SW14 treatment, LB broth ([9]; 0.5 μM SW14, LB broth): not in LB broth
susceptibility of S. typhimurium to H2O2 after SW14 treatment, LPM medium ([9]; 0.5 μM SW14, LPM medium): significantly increasing
enhancement of antibiotic suppression of intracellular Salmonella ([7]; 0.5 μM SW14 combined with CFM or CIP): can enhance the suppression caused by these antibiotics
intracellular replication of multidrug-resistant S. typhimurium isolates [10]: remained susceptible
intracellular proliferation of ciprofloxacin-resistant isolates [11]: still highly sensitive
suppressive effects against S. Typhimurium within macrophages in presence of ROS scavengers [12]: reversed
susceptibility of intracellular Salmonella to SW14 after knockdown of Atg7 [13]: more susceptible
effect on viability of intracellular Salmonella (CFU assay) [14]: potent suppressive effect

[H]/N=C(/N)N[C@H]1[C@H](O)[C@@H](O)[C@H](O[C@@H]2O[C@@H](C)[C@](O)(C=O)[C@H]2O[C@@H]2O[C@@H](CO)[C@H](O)[C@@H](O)[C@@H]2NC)[C@@H](N/C(N)=N\[H])[C@@H]1O [Streptomycin]
MIC [2, 17]: 32 µg/mL
MIC [3]: > 64 µg/mL
MIC [4]: > 64 µg/mL

CN(C)[C@@H]1C(O)=C(C(N)=O)C(=O)[C@@]2(O)C(O)=C3C(=O)c4c(O)cccc4[C@@](C)(O)[C@H]3C[C@@H]12 [Tetracycline]
MIC [2, 17]: 8 µg/mL
MIC [3]: > 64 µg/mL
MIC [4]: > 64 µg/mL

CN[C@H](CC(C)C)C(=O)N[C@H]1C(=O)N[C@@H](CC(N)=O)C(=O)N[C@H]2C(=O)N[C@H]3C(=O)N[C@H](C(=O)N[C@H](C(=O)O)c4cc(O)cc(O)c4-c4cc3ccc4O)[C@H](O)c3ccc(c(Cl)c3)Oc3cc2cc(c3O[C@@H]2O[C@H](CO)[C@@H](O)[C@H](O)[C@H]2O[C@H]2C[C@](C)(N)[C@H](O)[C@H](C)O2)Oc2ccc(cc2Cl)[C@H]1O [Vancomycin]
MIC [2, 15]: 2050 µg/mL
MIC [2, 16]: 512 µg/mL
MIC [2, 18]: 128 µg/mL

Gentamycin
MIC ATCC 14028 ([2]; Table 5): 2 µg/mL
MIC ATCC 14028 ([2]; Table 6): 2 µg/mL
MIC NL08.10 [3]: 2 µg/mL
MIC 0911R [4]: 2 µg/mL
MIC SA10 [5]: 0.5 µg/mL
MIC SB10 [6]: 1 µg/mL
